Measurements taken from patent publication US20040029847A1 (priority 2003, published 2004).

Legend:
[1] = test system: hERβ; settings: relative binding affinity, estradiol = 100; cited from earlier work
[2] = test system: estrogen receptor preparations from rat prostates; test: Competitive binding with 3H-estradiol to estrogen receptor from rat prostate cytosol
[3] = test system: hERβ; test: Relative binding affinity (RBA) to hERβ, cited from Kuiper et al.; design: species or system human; settings: quotient of RBA to hERβ and hERα
Excerpt: In this case, it is assumed that ERβ predominates in the rat prostates over ERα, and ERα predominates in rat uteri over ERβ.

| Compound | hERβ RBA* [1] | Rat prost. ER(RBA) ([2]; rat prostate cytosol, 3H-estradiol as ligand, estradiol = 100) | prost. ER/uterus ER ([2]; ratio of RBA at rat prostate ER to rat uterus ER) | ERβ/ERα [3] |
| --- | --- | --- | --- | --- |
| C[C@]12CC[C@@H]3c4ccc(O)cc4CC[C@H]3[C@@H]1C[C@@H](O)[C@@H]2O [Estriol] | 21 |  |  |  |
| Estradiol | 100 | 100 | 1 | 1 |
